Reference: the CheMixHub viscosity set
Several values for one entry are separate records, joined by “and”; a condition that tells them apart may be missing. Identical values can stand only once.

Experiment: xn = mol fraction of the nth substance listed

CCO + O
Settings	viscosity
293.15 K, 100 kPa, x1 = 0.3	2.81 mPa·s
293.15 K, 100 kPa, x1 = 0.4	2.616 mPa·s
293.15 K, 101 kPa, x2 = 0.25	2.385 mPa·s
293.15 K, 101 kPa, x2 = 0.75	2.114 mPa·s
293.15 K, 101.33 kPa, x1 = 0.04164	1.564 mPa·s
293.15 K, 101.33 kPa, x1 = 0.2068	2.942 mPa·s
293.15 K, 101.33 kPa, x1 = 0.235	2.947 mPa·s
293.15 K, 101.33 kPa, x1 = 0.2499	2.922 mPa·s
293.15 K, 101.33 kPa, x1 = 0.3697	2.694 mPa·s
293.15 K, 101.33 kPa, x1 = 0.4771	2.381 mPa·s
293.15 K, 101.33 kPa, x1 = 0.61	2.036 mPa·s
293.15 K, 101.33 kPa, x1 = 0.7787	1.643 mPa·s
293.15 K, 101.33 kPa, x2 = 0.0102	1.261 mPa·s
298 K, 101 kPa, x1 = 0.09	1.81 mPa·s
298 K, 101 kPa, x1 = 0.1	2.409 mPa·s
298 K, 101 kPa, x1 = 0.4	2.234 mPa·s
298 K, 101 kPa, x1 = 0.5	2.013 mPa·s
298.15 K, 100 kPa, x1 = 0.2	2.335 mPa·s
298.15 K, 100 kPa, x1 = 0.4	2.148 mPa·s
298.15 K, 100 kPa, x1 = 0.78	1.423 mPa·s
298.15 K, 101 kPa, x1 = 0.0112	0.991 mPa·s
298.15 K, 101 kPa, x1 = 0.0129	1.007 mPa·s
298.15 K, 101 kPa, x1 = 0.0197	1.072 mPa·s
298.15 K, 101 kPa, x1 = 0.025	1.127 mPa·s
298.15 K, 101 kPa, x1 = 0.0289	1.166 mPa·s
298.15 K, 101 kPa, x1 = 0.0348	1.225 mPa·s
298.15 K, 101 kPa, x1 = 0.0439	1.322 mPa·s
298.15 K, 101 kPa, x1 = 0.0515	1.405 mPa·s
298.15 K, 101 kPa, x1 = 0.0677	1.576 mPa·s
298.15 K, 101 kPa, x1 = 0.1003	1.889 mPa·s
298.15 K, 101 kPa, x1 = 0.1025	1.91 mPa·s
298.15 K, 101 kPa, x1 = 0.1139	2 mPa·s
298.15 K, 101 kPa, x1 = 0.1302	2.109 mPa·s
298.15 K, 101 kPa, x1 = 0.14	2.1 mPa·s
298.15 K, 101 kPa, x1 = 0.1597	2.247 mPa·s
298.15 K, 101 kPa, x1 = 0.1837	2.322 mPa·s
298.15 K, 101 kPa, x1 = 0.28	2.25 mPa·s
298.15 K, 101 kPa, x1 = 0.3515	2.248 mPa·s
298.15 K, 101 kPa, x1 = 0.37	2.14 mPa·s
298.15 K, 101 kPa, x1 = 0.4801	1.995 mPa·s
298.15 K, 101 kPa, x1 = 0.613	1.725 mPa·s
298.15 K, 101 kPa, x1 = 0.6923	1.58 mPa·s
298.15 K, 101 kPa, x1 = 0.8006	1.401 mPa·s
298.15 K, 101 kPa, x1 = 0.8018	1.399 mPa·s
298.15 K, 101 kPa, x1 = 0.905	1.239 mPa·s
298.15 K, 101 kPa, x1 = 0.9518	1.167 mPa·s
298.15 K, 101 kPa, x2 = 0.25	2.046 mPa·s
298.15 K, 101 kPa, x2 = 0.5	2.322 mPa·s
298.15 K, 101 kPa, x2 = 0.75	1.778 mPa·s
298.15 K, 101 kPa, x2 = 0.9584	1.108 mPa·s
298.15 K, 101.33 kPa, x1 = 0.0144	0.96 mPa·s
298.15 K, 101.33 kPa, x1 = 0.0205	1.013 mPa·s
298.15 K, 101.33 kPa, x1 = 0.1135	1.851 mPa·s
298.15 K, 101.33 kPa, x1 = 0.1414	2.129 mPa·s
298.15 K, 101.33 kPa, x1 = 0.1893	2.29 mPa·s
298.15 K, 101.33 kPa, x1 = 0.2151	2.327 mPa·s
298.15 K, 101.33 kPa, x1 = 0.3285	2.273 mPa·s
298.15 K, 101.33 kPa, x1 = 0.3308	2.273 mPa·s
298.15 K, 101.33 kPa, x1 = 0.3461	2.247 mPa·s
298.15 K, 101.33 kPa, x1 = 0.3745	2.226 mPa·s
298.15 K, 101.33 kPa, x1 = 0.3801	2.212 mPa·s
298.15 K, 101.33 kPa, x1 = 0.4246	2.104 mPa·s
298.15 K, 101.33 kPa, x1 = 0.4299	2.112 mPa·s
298.15 K, 101.33 kPa, x1 = 0.4836	1.995 mPa·s
298.2 K, 100 kPa, x2 = 0.387	1.854 mPa·s
298.2 K, 100 kPa, x2 = 0.399	1.676 mPa·s
298.2 K, 100 kPa, x2 = 0.655	2.18 mPa·s
298.2 K, 100 kPa, x2 = 0.674	2.18 mPa·s
300.65 K, 101 kPa, x1 = 0.86	1.1 mPa·s
303.15 K, 101 kPa, x2 = 0.25	1.767 mPa·s
303.15 K, 101 kPa, x2 = 0.5	1.961 mPa·s
303.15 K, 101.33 kPa, x1 = 0.04164	1.179 mPa·s
303.15 K, 101.33 kPa, x1 = 0.08905	1.574 mPa·s
303.15 K, 101.33 kPa, x1 = 0.1435	1.9 mPa·s
303.15 K, 101.33 kPa, x1 = 0.2499	2.061 mPa·s
303.15 K, 101.33 kPa, x1 = 0.2652	2.056 mPa·s
303.15 K, 101.33 kPa, x1 = 0.2811	2.068 mPa·s
303.15 K, 101.33 kPa, x1 = 0.4771	1.79 mPa·s
303.15 K, 101.33 kPa, x1 = 0.61	1.567 mPa·s
303.15 K, 101.33 kPa, x1 = 0.7787	1.311 mPa·s
303.15 K, 101.33 kPa, x2 = 0.0102	1.035 mPa·s
308 K, 101 kPa, x1 = 0.09	1.343 mPa·s
308.15 K, 101 kPa, x2 = 0.25	1.54 mPa·s
308.15 K, 101 kPa, x2 = 0.5	1.676 mPa·s
308.15 K, 101 kPa, x2 = 0.9584	0.939 mPa·s
313.15 K, 101 kPa, x2 = 0.25	1.349 mPa·s
313.15 K, 101 kPa, x2 = 0.5	1.448 mPa·s
313.15 K, 101.33 kPa, x1 = 0.04164	0.909 mPa·s
313.15 K, 101.33 kPa, x1 = 0.1435	1.383 mPa·s
313.15 K, 101.33 kPa, x1 = 0.2068	1.494 mPa·s
313.15 K, 101.33 kPa, x1 = 0.2499	1.509 mPa·s
313.15 K, 101.33 kPa, x1 = 0.2652	1.514 mPa·s
313.15 K, 101.33 kPa, x1 = 0.2811	1.529 mPa·s
313.15 K, 101.33 kPa, x1 = 0.61	1.223 mPa·s
313.15 K, 101.33 kPa, x1 = 0.7787	1.05 mPa·s
317.15 K, 101 kPa, x1 = 0.86	0.779 mPa·s
318.15 K, 101 kPa, x2 = 0.25	1.185 mPa·s
318.15 K, 101 kPa, x2 = 0.5	1.255 mPa·s
318.15 K, 101 kPa, x2 = 0.9413	0.8181 mPa·s
323.15 K, 100 kPa, x1 = 0.2	1.113 mPa·s and 1.08 mPa·s
323.15 K, 100 kPa, x1 = 0.3	1.108 mPa·s
323.15 K, 100 kPa, x1 = 0.4	1.113 mPa·s and 1.072 mPa·s
323.15 K, 100 kPa, x1 = 0.6	0.9548 mPa·s and 0.9408 mPa·s
323.15 K, 100 kPa, x1 = 0.8	0.8101 mPa·s
323.15 K, 101 kPa, x2 = 0.25	1.055 mPa·s
323.15 K, 101 kPa, x2 = 0.5	1.102 mPa·s
323.15 K, 101 kPa, x2 = 0.75	0.89 mPa·s
323.15 K, 101.33 kPa, x1 = 0.04164	0.747 mPa·s
323.15 K, 101.33 kPa, x1 = 0.08905	0.924 mPa·s
323.15 K, 101.33 kPa, x1 = 0.1435	1.061 mPa·s
323.15 K, 101.33 kPa, x1 = 0.2068	1.152 mPa·s
323.15 K, 101.33 kPa, x1 = 0.235	1.157 mPa·s
323.15 K, 101.33 kPa, x1 = 0.2499	1.162 mPa·s
323.15 K, 101.33 kPa, x1 = 0.2652	1.177 mPa·s
323.15 K, 101.33 kPa, x1 = 0.2811	1.18 mPa·s
323.15 K, 101.33 kPa, x1 = 0.3697	1.162 mPa·s
323.15 K, 101.33 kPa, x1 = 0.4771	1.089 mPa·s
323.15 K, 101.33 kPa, x1 = 0.61	0.981 mPa·s
323.15 K, 101.33 kPa, x1 = 0.7787	0.866 mPa·s
323.15 K, 101.33 kPa, x2 = 0.0102	0.729 mPa·s
